According to the NIST ThermoML archive (doi:10.1021/je900550v):
± gives the expanded uncertainty stated by the source.

Conditions: 101.33 kPa, Liquid; for speed of sound: Pulse-echo method; for mass density: Vibrating tube method

C[NH2+]CCO.O=C[O-] [2-hydroxy-N-methylethanaminium formate]
Conditions | mass density [kg/m3] | speed of sound [m/s] | viscosity [mPa·s]
278.15 K | 1139.41 ± 2.3 | 1854.7 ± 2.2 | –
278.4 K | 1139.26 ± 2.3 | 1854.2 ± 2.2 | –
278.65 K | 1139.13 ± 2.3 | 1853.7 ± 2.2 | –
278.9 K | 1138.99 ± 2.3 | 1853.2 ± 2.2 | –
279.15 K | 1138.85 ± 2.3 | 1852.7 ± 2.2 | –
279.4 K | 1138.71 ± 2.3 | 1852.2 ± 2.2 | –
279.65 K | 1138.58 ± 2.3 | 1851.7 ± 2.2 | –
279.9 K | 1138.44 ± 2.3 | 1851.2 ± 2.2 | –
280.15 K | 1138.3 ± 2.3 | 1850.7 ± 2.2 | –
280.4 K | 1138.16 ± 2.3 | 1850.2 ± 2.2 | –
280.65 K | 1138.02 ± 2.3 | 1849.7 ± 2.2 | –
280.9 K | 1137.88 ± 2.2 | 1849.2 ± 2.2 | –
281.15 K | 1137.73 ± 2.2 | 1848.7 ± 2.2 | –
281.4 K | 1137.6 ± 2.2 | 1848.2 ± 2.2 | –
281.65 K | 1137.46 ± 2.2 | 1847.7 ± 2.2 | –
281.9 K | 1137.32 ± 2.2 | 1847.2 ± 2.2 | –
282.15 K | 1137.18 ± 2.2 | 1846.8 ± 2.2 | –
282.4 K | 1137.04 ± 2.2 | 1846.3 ± 2.2 | –
282.65 K | 1136.9 ± 2.2 | 1845.8 ± 2.2 | –
282.9 K | 1136.77 ± 2.2 | 1845.3 ± 2.2 | –
283.15 K | 1136.62 ± 2.2 | 1844.8 ± 2.2 | –
283.4 K | 1136.49 ± 2.2 | 1844.3 ± 2.2 | –
283.65 K | 1136.35 ± 2.2 | 1843.8 ± 2.2 | –
283.9 K | 1136.21 ± 2.2 | 1843.3 ± 2.2 | –
284.15 K | 1136.07 ± 2.2 | 1842.8 ± 2.2 | –
284.4 K | 1135.93 ± 2.2 | 1842.3 ± 2.2 | –
284.65 K | 1135.79 ± 2.2 | 1841.8 ± 2.2 | –
284.9 K | 1135.65 ± 2.2 | 1841.3 ± 2.2 | –
285.15 K | 1135.51 ± 2.2 | 1840.8 ± 2.2 | –
285.4 K | 1135.37 ± 2.2 | 1840.3 ± 2.2 | –
285.65 K | 1135.23 ± 2.2 | 1839.8 ± 2.2 | –
285.9 K | 1135.09 ± 2.2 | 1839.3 ± 2.2 | –
286.15 K | 1134.95 ± 2.2 | 1838.9 ± 2.2 | –
286.4 K | 1134.81 ± 2.2 | 1838.4 ± 2.2 | –
286.65 K | 1134.67 ± 2.2 | 1837.9 ± 2.2 | –
286.9 K | 1134.53 ± 2.2 | 1837.4 ± 2.2 | –
287.15 K | 1134.39 ± 2.2 | 1836.9 ± 2.2 | –
287.4 K | 1134.25 ± 2.2 | 1836.4 ± 2.2 | –
287.65 K | 1134.11 ± 2.2 | 1835.9 ± 2.2 | –
287.9 K | 1133.97 ± 2.2 | 1835.4 ± 2.2 | –
288.15 K | 1133.84 ± 2.2 | 1834.9 ± 2.2 | 34.2
288.4 K | 1133.69 ± 2.2 | 1834.4 ± 2.2 | –
288.65 K | 1133.55 ± 2.2 | 1833.9 ± 2.2 | –
288.9 K | 1133.41 ± 2.2 | 1833.4 ± 2.2 | –
289.15 K | 1133.28 ± 2.2 | 1833 ± 2.2 | –
289.4 K | 1133.13 ± 2.2 | 1832.5 ± 2.2 | –
289.65 K | 1133 ± 2.2 | 1832 ± 2.2 | –
289.9 K | 1132.86 ± 2.2 | 1831.5 ± 2.2 | –
290.15 K | 1132.72 ± 2.2 | 1831 ± 2.2 | –
290.4 K | 1132.58 ± 2.2 | 1830.5 ± 2.2 | –
290.65 K | 1132.44 ± 2.2 | 1830 ± 2.2 | 30.15
290.9 K | 1132.3 ± 2.2 | 1829.5 ± 2.2 | –
291.15 K | 1132.16 ± 2.2 | 1829 ± 2.2 | –
291.4 K | 1132.01 ± 2.2 | 1828.5 ± 2.2 | –
291.65 K | 1131.88 ± 2.2 | 1828 ± 2.2 | –
291.9 K | 1131.74 ± 2.2 | 1827.5 ± 2.2 | –
292.15 K | 1131.6 ± 2.2 | 1827 ± 2.2 | –
292.4 K | 1131.46 ± 2.2 | 1826.6 ± 2.2 | –
292.65 K | 1131.32 ± 2.2 | 1826.1 ± 2.2 | –
292.9 K | 1131.18 ± 2.2 | 1825.6 ± 2.2 | –
293.15 K | 1131.04 ± 2.2 | 1825.1 ± 2.2 | 26.05
293.4 K | 1130.9 ± 2.2 | 1824.6 ± 2.2 | –
293.65 K | 1130.76 ± 2.2 | 1824.1 ± 2.2 | –
293.9 K | 1130.62 ± 2.2 | 1823.6 ± 2.2 | –
294.15 K | 1130.48 ± 2.2 | 1823.2 ± 2.2 | –
294.4 K | 1130.34 ± 2.2 | 1822.7 ± 2.2 | –
294.65 K | 1130.2 ± 2.2 | 1822.2 ± 2.2 | –
294.9 K | 1130.06 ± 2.2 | 1821.7 ± 2.2 | –
295.15 K | 1129.92 ± 2.2 | 1821.2 ± 2.2 | –
295.4 K | 1129.78 ± 2.2 | 1820.7 ± 2.2 | –
295.65 K | 1129.64 ± 2.2 | 1820.2 ± 2.2 | 23.22
295.9 K | 1129.5 ± 2.2 | 1819.7 ± 2.2 | –
296.15 K | 1129.37 ± 2.2 | 1819.2 ± 2.2 | –
296.4 K | 1129.23 ± 2.2 | 1818.7 ± 2.2 | –
296.65 K | 1129.08 ± 2.2 | 1818.2 ± 2.2 | –
296.9 K | 1128.94 ± 2.2 | 1817.7 ± 2.2 | –
297.15 K | 1128.8 ± 2.2 | 1817.3 ± 2.2 | –
297.4 K | 1128.66 ± 2.2 | 1816.8 ± 2.2 | –
297.65 K | 1128.52 ± 2.2 | 1816.3 ± 2.2 | –
297.9 K | 1128.38 ± 2.2 | 1815.8 ± 2.2 | –
298.15 K | 1128.25 ± 2.2 | 1815.3 ± 2.2 | 20.27
298.4 K | 1128.11 ± 2.2 | 1814.8 ± 2.2 | –
298.65 K | 1127.96 ± 2.2 | 1814.3 ± 2.2 | –
298.9 K | 1127.83 ± 2.2 | 1813.8 ± 2.2 | –
299.15 K | 1127.69 ± 2.2 | 1813.4 ± 2.2 | –
299.4 K | 1127.55 ± 2.2 | 1812.9 ± 2.2 | –
299.65 K | 1127.41 ± 2.2 | 1812.4 ± 2.2 | –
299.9 K | 1127.27 ± 2.2 | 1811.9 ± 2.2 | –
300.15 K | 1127.13 ± 2.2 | 1811.4 ± 2.2 | –
300.4 K | 1126.99 ± 2.2 | 1810.9 ± 2.2 | –
300.65 K | 1126.85 ± 2.2 | 1810.4 ± 2.2 | 18.37
300.9 K | 1126.71 ± 2.2 | 1809.9 ± 2.2 | –
301.15 K | 1126.57 ± 2.2 | 1809.5 ± 2.2 | –
301.4 K | 1126.43 ± 2.2 | 1809 ± 2.2 | –
301.65 K | 1126.29 ± 2.2 | 1808.5 ± 2.2 | –
301.9 K | 1126.15 ± 2.2 | 1808 ± 2.2 | –
302.15 K | 1126.02 ± 2.2 | 1807.5 ± 2.2 | –
302.4 K | 1125.87 ± 2.2 | 1807 ± 2.2 | –
302.65 K | 1125.73 ± 2.2 | 1806.5 ± 2.2 | –
302.9 K | 1125.59 ± 2.2 | 1806 ± 2.2 | –
303.15 K | 1125.45 ± 2.2 | 1805.6 ± 2.2 | 16.4
303.4 K | 1125.32 ± 2.2 | 1805.1 ± 2.2 | –
303.65 K | 1125.18 ± 2.2 | 1804.6 ± 2.2 | –
303.9 K | 1125.04 ± 2.2 | 1804.1 ± 2.2 | –
304.15 K | 1124.89 ± 2.2 | 1803.6 ± 2.2 | –
304.4 K | 1124.76 ± 2.2 | 1803.2 ± 2.2 | –
304.65 K | 1124.62 ± 2.2 | 1802.7 ± 2.2 | –
304.91 K | 1124.48 ± 2.2 | 1802.2 ± 2.2 | –
305.15 K | 1124.34 ± 2.2 | 1801.7 ± 2.2 | 15.1
305.4 K | 1124.2 ± 2.2 | 1801.2 ± 2.2 | –
305.65 K | 1124.06 ± 2.2 | 1800.7 ± 2.2 | –
305.9 K | 1123.92 ± 2.2 | 1800.2 ± 2.2 | –
306.15 K | 1123.78 ± 2.2 | 1799.7 ± 2.2 | –
306.4 K | 1123.64 ± 2.2 | 1799.3 ± 2.2 | –
306.65 K | 1123.5 ± 2.2 | 1798.8 ± 2.2 | –
306.9 K | 1123.36 ± 2.2 | 1798.3 ± 2.2 | –
307.15 K | 1123.22 ± 2.2 | 1797.8 ± 2.2 | –
307.4 K | 1123.08 ± 2.2 | 1797.3 ± 2.2 | –
307.65 K | 1122.94 ± 2.2 | 1796.8 ± 2.2 | –
307.9 K | 1122.8 ± 2.2 | 1796.3 ± 2.2 | –
